Assays:
Beta-secretase 1 [1] = molecular target: T1, Beta-secretase 1 (Homo sapiens, UniProt P56817); test: Inhibition of BACE1
Beta-secretase 1 [2] = molecular target: T1, Beta-secretase 1; test: Inhibition of human BACE1 expressed in mouse fibroblast cells assessed as inhibition of secreted APPbeta-NF production at pH 7.2; format: cell-based

T1 sequence (P56817 whole entry): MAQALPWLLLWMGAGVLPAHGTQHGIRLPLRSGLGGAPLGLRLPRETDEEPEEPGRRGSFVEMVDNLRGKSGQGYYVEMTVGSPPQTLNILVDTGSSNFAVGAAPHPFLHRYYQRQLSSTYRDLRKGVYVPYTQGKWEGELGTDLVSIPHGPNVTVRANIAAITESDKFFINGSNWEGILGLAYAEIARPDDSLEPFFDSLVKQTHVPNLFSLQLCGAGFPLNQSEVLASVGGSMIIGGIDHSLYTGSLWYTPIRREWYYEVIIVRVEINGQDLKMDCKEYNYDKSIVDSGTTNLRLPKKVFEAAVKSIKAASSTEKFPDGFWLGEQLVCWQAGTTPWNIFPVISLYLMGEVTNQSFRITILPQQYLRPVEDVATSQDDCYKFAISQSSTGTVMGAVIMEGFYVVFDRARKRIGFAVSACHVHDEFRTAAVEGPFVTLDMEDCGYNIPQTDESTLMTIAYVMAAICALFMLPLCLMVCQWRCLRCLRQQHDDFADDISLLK

SMILES	IC50 (Beta-secretase 1 [1])	IC50 (Beta-secretase 1 [2])
C[C@@H](NC(=O)c1cc(OCCC(N)(CO)Cc2ccccc2)cc(N(C)S(C)(=O)=O)c1)c1ccc(F)cc1 (some centres undefined)	70500 nM	–
C[C@@H](NC(=O)c1cc(NCCC(N)(CO)Cc2ccccc2)cc(N(C)S(C)(=O)=O)c1)c1ccc(F)cc1 (some centres undefined)	> 100000 nM	–
C[C@@H](NC(=O)c1cc(C(=O)OCC(O)(CN)Cc2ccccc2)cc(N(C)S(C)(=O)=O)c1)c1ccc(F)cc1 (some centres undefined)	22200 nM	–
C[C@@H](NC(=O)c1cc(-c2noc([C@](C)(N)Cc3ccccc3)n2)cc(N(C)S(C)(=O)=O)c1)c1ccc(F)cc1	2060 nM	–
C[C@@H](NC(=O)c1cc(-c2n[nH]c([C@](C)(N)Cc3ccccc3)n2)cc(N(C)S(C)(=O)=O)c1)c1ccc(F)cc1	822 nM	4740 nM
C[C@@H](NC(=O)c1cc(-c2ccc(C(C)(N)Cc3ccccc3)o2)cc(N(C)S(C)(=O)=O)c1)c1ccc(F)cc1 (mixture of isomers)	20 nM	4 nM
C[C@@H](NC(=O)c1cc(C(=O)NCC(N)(CO)Cc2ccccc2)cc(N(C)S(C)(=O)=O)c1)c1ccc(F)cc1 (some centres undefined)	10800 nM	–
C[C@@H](NC(=O)c1cc(N(C)S(C)(=O)=O)cc(S(=O)(=O)CCC(N)(CO)Cc2ccccc2)c1)c1ccc(F)cc1 (some centres undefined)	> 100000 nM	–
CNC(CO)(COC(=O)c1cc(C(=O)N[C@H](C)c2ccc(F)cc2)cc(N(C)S(C)(=O)=O)c1)Cc1ccccc1 (some centres undefined)	> 100000 nM	–
C[C@@H](NC(=O)c1cc(-c2nc([C@](C)(N)Cc3ccccc3)no2)cc(N(C)S(C)(=O)=O)c1)c1ccc(F)cc1	1830 nM	–
C[C@@H](NC(=O)c1cc(SCCC(N)(CO)Cc2ccccc2)cc(N(C)S(C)(=O)=O)c1)c1ccc(F)cc1 (some centres undefined)	> 100000 nM	–
C[C@@H](NC(=O)c1cc(N(C)S(C)(=O)=O)cc(-n2cc([C@](C)(N)Cc3ccccc3)nn2)c1)c1ccc(F)cc1	16300 nM	–
C[C@@H](NC(=O)c1cc(C(=O)NCC(O)(CO)Cc2ccccc2)cc(N(C)S(C)(=O)=O)c1)c1ccc(F)cc1 (some centres undefined)	24900 nM	–
C[C@@H](NC(=O)c1cc(COC(=O)C(C)(N)Cc2ccccc2)cc(N(C)S(C)(=O)=O)c1)c1ccc(F)cc1 (some centres undefined)	19 nM	163 nM
C[C@@H](NC(=O)c1cc(-c2ncc([C@](C)(N)Cc3ccccc3)o2)cc(N(C)S(C)(=O)=O)c1)c1ccc(F)cc1	7 nM	5 nM
C[C@@H](NC(=O)c1cc(-c2nnc([C@](C)(N)Cc3ccccc3)s2)cc(N(C)S(C)(=O)=O)c1)c1ccc(F)cc1	29900 nM	–

Other lines, results leading:

IC50 (Beta-secretase 1 [1])	IC50 (Beta-secretase 1 [2])	SMILES
925 nM	> 20000 nM	C[C@@H](NC(=O)c1cc(COCC(N)(Cc2ccccc2)C(F)F)cc(N(C)S(C)(=O)=O)c1)c1ccc(F)cc1 (mixture of isomers)
997 nM	432 nM	C[C@@H](NC(=O)c1cc(COCC(N)(CF)Cc2ccccc2)cc(N(C)S(C)(=O)=O)c1)c1ccc(F)cc1 (mixture of isomers)
22400 nM	–	C[C@@H](NC(=O)c1cc(CCC[C@](N)(CO)Cc2ccccc2)cc(N(C)S(C)(=O)=O)c1)c1ccc(F)cc1
22000 nM	–	CCC(N)(COCc1cc(C(=O)N[C@H](C)c2ccc(F)cc2)cc(N(C)S(C)(=O)=O)c1)Cc1ccccc1 (mixture of isomers)
5720 nM	–	C[C@@H](NC(=O)c1cc(CNC(=O)C(C)(N)Cc2ccccc2)cc(N(C)S(C)(=O)=O)c1)c1ccc(F)cc1 (some centres undefined)
344 nM	138 nM	C[C@@H](NC(=O)c1cc(COC[C@](C)(N)Cc2ccccc2)cc(N(C)S(C)(=O)=O)c1)c1ccc(F)cc1
10100 nM	1710 nM	C[C@@H](NC(=O)c1cc(COC[C@H](N)Cc2ccccc2)cc(N(C)S(C)(=O)=O)c1)c1ccc(F)cc1
1370 nM	580 nM	C[C@@H](NC(=O)c1cc(COC[C@](N)(CO)Cc2ccccc2)cc(N(C)S(C)(=O)=O)c1)c1ccc(F)cc1
18100 nM	–	C[C@@H](NC(=O)c1cc(CNC(=O)C(N)(CO)Cc2ccccc2)cc(N(C)S(C)(=O)=O)c1)c1ccc(F)cc1 (some centres undefined)
310 nM	684 nM	C[C@@H](NC(=O)c1cc(COC(=O)C(N)(CO)Cc2ccccc2)cc(N(C)S(C)(=O)=O)c1)c1ccc(F)cc1 (some centres undefined)
10100 nM	3470 nM	C[C@@H](NC(=O)c1cc(CNC[C@](N)(CO)Cc2ccccc2)cc(N(C)S(C)(=O)=O)c1)c1ccc(F)cc1
> 100000 nM	–	COCC(N)(COCc1cc(C(=O)N[C@H](C)c2ccc(F)cc2)cc(N(C)S(C)(=O)=O)c1)Cc1ccccc1 (mixture of isomers)
